We go through 78 compounds from PubChem BioAssay AID1194 (EPA DSSTox, 2008).

The source made the active and inactive calls.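 The calls were made as follows: active = chemicals rated mutagenic or weakly mutagenic in the Salmonella bacterial test by one literature review, or positive overall by another; inconclusive = no clear call, values can overlap the other calls; inactive = the rest.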 Numbered stars: 1 amine (or outer) side, 2 acyl side, 3 side chain; on linkers, the order of the positions; unused ones are H or OH. Bridge positions count the residues as written; N and C are the ends. Square brackets hold non-standard residues; d marks the D form. Peptide text beside a SMILES is read from it. I, II: the chains in the order shown. Actinocin(9to1) = Cc1c2oc3c(C)ccc(C(=O)[*:1])c3nc-2c(C(=O)[*:2])c(N)c1=O; NMeV = CN[C@H](C(=O)O)C(C)C; Sar = CNCC(=O)O

For the series, the system named is Salmonella typhimurium Ames mutagenicity, literature compiled. The experiment in a line: DSSTox (CPDBAS) Carcinogenic Potency Database Salmonella Mutagenicity. An outline of the steps:
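Literature-compiled Salmonella result: chemical called active if rated overall "mutagenic" or "weakly mutagenic" by Zeiger or overall "positive" by the EPA Gene-Tox Program.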
With `CC1=NN(c2ccccc2)C(=O)C1`, the outcome was inactive.

Consider `C=CCN=C=S`, for which the outcome was active.

Consider `c1ccc2c(c1)ccc1cc3c(ccc4ccccc43)cc12`, for which the result was active.

As for `CN(C)C(=S)[S][Pb][S]C(=S)N(C)C`, the result was active.

Take `Nc1ccc(NCCO)c([N+](=O)[O-])c1`: the outcome was active.

As to `CC(O)c1ccccc1` (stereo not drawn), the outcome is “inactive; active”.

On to `CCCN(CCC)N=O`, for which the result was active.

Regarding `ClC=C(Cl)Cl`, the outcome is “inactive; active”.

As to `CCN(Cc1cccc(S(=O)(=O)O)c1)c1ccc(C(=C2C=CC(=[N+](CC)Cc3cccc(S(=O)(=O)O)c3)C=C2)c2ccc(O)cc2S(=O)(=O)[O-])cc1`, the outcome was “inactive; active”.

Take `Oc1c(Cl)cc(Cl)c(Cl)c1Cc1c(O)c(Cl)cc(Cl)c1Cl`: the outcome is “inactive; active”.

Turning to `CCOc1ccc(NC(N)=O)cc1`, the outcome is “inactive; active”.

As to `C=CC(=O)O`, the result was inactive.

Turning to `O=C/C=C/c1ccccc1`, the result was inactive.

Consider `Nc1ccccc1C(=O)OC/C=C/c1ccccc1`, for which the result was inactive.

As for `C[C@]12CC[C@@H]3c4ccc(O)cc4CC[C@H]3[C@@H]1CC[C@@H]2O`, the outcome was inactive.

For the compound `NC1CCCCC1`, the outcome is “inactive; active”.

For the compound `COC(=O)[C@H]1[C@H]2C[C@@H]3c4[nH]c5cc(OC)ccc5c4CCN3C[C@H]2C[C@@H](OC(=O)c2cc(OC)c(OC)c(OC)c2)[C@@H]1OC`, the result was inactive.

For `CCNc1nc(Cl)nc(NCC)n1`, the outcome was inactive.

Take `CCCCC1C(=O)N(c2ccccc2)N(c2ccccc2)C1=O`: the outcome was inactive.

For `O=C(O)CN(CCN(CC(=O)O)CC(=O)O)CC(=O)O`, the outcome was inactive.

On to `CC(COc1ccccc1)N(CCCl)Cc1ccccc1` (stereo not drawn), for which the outcome was “active; inactive”.

As to `CNN`, the outcome was “active; inactive”.

`ClC(Cl)(Cl)c1ccccc1`: the outcome was active.

`ClCC(Cl)Cl`: the outcome was inactive.

In the case of `OCc1ccco1`, the outcome is “inactive; active”.

For `c1ccc(N=Nc2ccccc2)cc1`, the outcome was active.

For the compound `CC(Cl)(Cl)Cl`, the result was active.

Regarding `Cc1cc(O)c(C)c2c1OC(C)(CCCC(C)CCCC(C)CCCC(C)C)CC2` (stereo not drawn), the outcome is “inactive; active”.

Regarding `Cc1cc(C)c(N=Nc2c(O)c(S(=O)(=O)O)cc3cc(S(=O)(=O)O)ccc23)cc1C`, the outcome was “inactive; active”.

As for `O=C(O)C(Cl)Cl`, the outcome was active.

Turning to `ClC/C=C/CCl`, the outcome is “active; inactive”.

Take `COc1c2occc2cc2ccc(=O)oc12`: the result was active.

With `Nc1ncc([N+](=O)[O-])s1`, the result was active.

As for `CCCCC(CC)COC(=O)COc1ccc(Cl)cc1Cl` (stereo not drawn), the outcome was inactive.

In the case of `O[C@H]([C@H](O)[C@@H](O)CBr)[C@H](O)CBr`, the outcome was “active; inactive”.

As for `CCNC(=S)NCC`, the outcome was inactive.

Turning to `OCCOCCOCCO`, the outcome is “active; inactive”.

As to `CC(N)=O`, the outcome is “inactive; active”.

Regarding `C#C[C@]1(O)CC[C@H]2[C@@H]3CCc4cc(OC)ccc4[C@H]3CC[C@@]21C`, the outcome was inactive.

For `O=[N+]([O-])c1cccc2ccccc12`, the result was active.

On to `Clc1ccc2c(c1)Oc1ccc(Cl)cc1O2`, for which the result was inactive.

Turning to `Oc1cccc(O)c1`, the result was inactive.

For `CCCCCCCCS(=O)C(C)Cc1ccc2c(c1)OCO2` (stereo not drawn), the outcome was “inactive; active”.

As for `Cc1ccc(NC(N)=O)cc1`, the outcome was “inactive; active”.

With `C[N+](C)(C)CCCl`, the outcome was “inactive; active”.

With `O=c1oc2c(O)c(O)cc3c(=O)oc4c(O)c(O)cc1c4c23`, the result was inactive.

As for `COP(=O)(OC)C(O)C(Cl)(Cl)Cl` (stereo not drawn), the result was active.

For the compound `CC(=O)Nc1ccc(C(=O)CCl)cc1`, the result was active.

Consider `COc1ccc(N)cc1N`, for which the outcome is “active; inactive”.

On to `Clc1ccc(C(c2ccccc2Cl)C(Cl)Cl)cc1` (stereo not drawn), for which the outcome was inactive.

In the case of `Cc1cc(C)nc(NS(=O)(=O)c2ccc(N)cc2)n1`, the result was inactive.

For the compound `CCC(O)OC(O)CC` (stereo not drawn), the outcome is “inactive; active”.

For `Cc1cc(Cl)ccc1N`, the outcome was “inactive; active”.

Regarding `[C-]1=CC=CC1.[C-]1=CC=CC1.[Cl-].[Cl-].[Ti+4]`, the outcome was “active; inactive”.

As to `COc1cc(-c2ccc(N=Nc3c(S(=O)(=O)O)cc4cc(S(=O)(=O)O)cc(N)c4c3O)c(OC)c2)ccc1N=Nc1c(S(=O)(=O)O)cc2cc(S(=O)(=O)O)cc(N)c2c1O`, the result was active.

`O=NN1CCCCCC1`: the outcome was active.

Consider `O=C1NC(c2ccc([N+](=O)[O-])s2)Nc2ccccc21` (stereo not drawn), for which the outcome was active.

In the case of `CCCc1cc(=O)[nH]c(=S)[nH]1`, the outcome was “inactive; active”.

For `c1ccc(Nc2ccc(Nc3ccccc3)cc2)cc1`, the outcome is “active; inactive”.

For the compound `CCCNC(=O)NS(=O)(=O)c1ccc(Cl)cc1`, the outcome was “inactive; active”.

For `[N-]=[N+]=[N-]`, the outcome is “active; inactive”.

`Cc1ccc2c(c1[N+](=O)[O-])C(=O)c1ccccc1C2=O`: the outcome was “active; inactive”.

In the case of `O=c1cc(CO)occ1O`, the outcome is “active; inactive”.

For the compound `COc1ccc([N+](=O)[O-])cc1N=Nc1c(O)c(C(=O)Nc2cccc([N+](=O)[O-])c2)cc2ccccc12`, the outcome was “active; inactive”.

With `Nc1ccccc1C(=O)O`, the result was inactive.

Take `O=CC1CO1` (stereo not drawn): the result was active.

On to `N[C@@H](CCC(=O)O)C(=O)O`, for which the outcome was “inactive; active”.

Regarding `CC(Cl)Cl`, the outcome was “inactive; active”.

On to `Cc1c2oc3c(C)ccc(C(=O)N[C@@H]4C(=O)N[C@H](C(C)C)C(=O)N5CCC[C@H]5C(=O)N(C)CC(=O)N(C)[C@@H](C(C)C)C(=O)O[C@@H]4C)c3nc-2c(C(=O)N[C@@H]2C(=O)N[C@H](C(C)C)C(=O)N3CCC[C@H]3C(=O)N(C)CC(=O)N(C)[C@@H](C(C)C)C(=O)O[C@@H]2C)c(N)c1=O` (I: T[dV]P[Sar][NMeV] / II: T[dV]P[Sar][NMeV]; ester I:1-I:C, II:1-II:C; linker I:N-II:N via Actinocin(9to1)), for which the outcome was “inactive; active”.

`CC(C)Oc1ccccc1OC(=O)N(C)N=O`: the outcome was active.

For the compound `CCc1ccc(C(c2ccc(CC)cc2)C(Cl)Cl)cc1`, the result was active.

As to `CC(O)COC(C)(C)C` (stereo not drawn), the outcome is “active; inactive”.

For `O=NN1CCN(N=O)CC1`, the outcome was “active; inactive”.

As to `Nc1cc(Cl)c(N)c(Cl)c1`, the outcome was active.

With `COC(=O)c1ccc(C(=O)OC)cc1`, the outcome is “inactive; active”.

As for `O=P1(NCCCl)OCCCN1CCCl` (stereo not drawn), the outcome is “active; inactive”.

On to `Nc1ccc(N)c(Cl)c1`, for which the outcome was “active; inactive”.

As to `CN(C)N=O`, the outcome was active.
